Source: ChEMBL document CHEMBL3792380, “A sub-milligram-synthesis protocol for in vitro screening of HDAC11 inhibitors” (Bioorg Med Chem Lett, 2016)

Biological target: T1, Histone deacetylase 11 (Homo sapiens, UniProt Q96DB2)
T1 sequence (Q96DB2 whole entry): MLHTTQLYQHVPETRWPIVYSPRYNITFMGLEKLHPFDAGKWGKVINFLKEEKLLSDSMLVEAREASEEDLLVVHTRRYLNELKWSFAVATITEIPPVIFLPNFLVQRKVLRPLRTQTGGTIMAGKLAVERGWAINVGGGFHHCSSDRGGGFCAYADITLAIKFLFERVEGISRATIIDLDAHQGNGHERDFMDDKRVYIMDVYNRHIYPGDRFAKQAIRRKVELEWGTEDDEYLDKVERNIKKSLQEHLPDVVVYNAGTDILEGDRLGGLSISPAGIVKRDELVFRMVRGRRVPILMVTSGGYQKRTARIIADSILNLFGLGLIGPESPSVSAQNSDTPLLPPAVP
Test: Inhibition of His-tagged human HDAC11 expressed in Sf9 cells using Ac-Arg-Gly-Lys(Ac)-AMC as substrate by fluorometric assay

IC50: 1200 nM
SMILES: O=C(/C=C/c1cn([C@H]2C[C@@H](CO)N(Cc3ccccc3)C2)nn1)NO
